Results published in patent publication US12338203B2 (TAISHO PHARMACEUTICAL CO., LTD., priority 2019, dated 2025).

target: T1, human LPAR1 (Homo sapiens, UniProt Q92633); experiment: Test Example 1: antagonism against response of LPA-induced increase in intracellular Ca2+ concentration in RH7777 cells stably expressing human LPAR1; assay type: cell-based; conditions: RH7777 cells stably expressing human LPAR1; Fluo-4 fluorescence, FDSS6000; read-out: IC50 value (concentration producing 50% antagonism against response of LPA-induced increase in intracellular Ca2+ concentration) (converted)
T1 construct: expressed in transfected cells
In short: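 RH7777 cells stably transfected with human LPAR1 were preincubated with test compound 30 min at 37 °C in HBSS/20 mM HEPES/probenecid/0.05% BSA buffer, pH 7.4, then LPA-stimulated.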

T1 sequence (Q92633 whole entry): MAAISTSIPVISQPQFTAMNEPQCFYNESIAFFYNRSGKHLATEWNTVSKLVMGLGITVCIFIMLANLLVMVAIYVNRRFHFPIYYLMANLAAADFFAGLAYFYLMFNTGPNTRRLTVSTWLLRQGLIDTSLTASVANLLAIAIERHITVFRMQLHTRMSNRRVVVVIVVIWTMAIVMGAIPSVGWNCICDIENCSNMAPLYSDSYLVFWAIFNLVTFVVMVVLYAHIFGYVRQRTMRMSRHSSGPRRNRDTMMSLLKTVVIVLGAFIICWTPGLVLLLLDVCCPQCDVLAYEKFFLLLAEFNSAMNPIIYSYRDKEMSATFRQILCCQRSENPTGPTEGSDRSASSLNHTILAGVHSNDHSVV

Row | Compound | IC50
1 | CCOC1CC(NC(=O)N(CCOCc2ccccc2)[C@H](C)c2cc(OC)c(C(C)=O)c(OC)c2)(C(=O)O)C1 (some centres unmarked) [Example 5-125] | 10.9 nM
2 | CCO[C@H]1C[C@@](NC(=O)N(CCO[C@@H](C)c2ccccc2)C(C)c2cc(OC)c(C(C)=O)c(OC)c2)(C(=O)O)C1 (some centres unmarked) [Example 5-126] | 26.1 nM
3 | CCO[C@H]1C[C@@](NC(=O)N(CCOCc2ccccc2)C(C)c2cc(OC)c(C(C)=O)c(OC)c2Cl)(C(=O)O)C1 (some centres unmarked) [Example 5-127] | 3.94 nM
4 | CCO[C@H]1C[C@@](NC(=O)N(CCO[C@@H](C)c2ccccc2)C(C)c2cc(OC)c(C(C)=O)c(OC)c2Cl)(C(=O)O)C1 (some centres unmarked) [Example 5-128] | 10.3 nM
5 | COc1cc(C(C)N(CCOCc2ccccc2)C(=O)NC2(C(=O)O)CC2)c(Cl)c(OC)c1C1CC1 (centres unmarked) [Example 5-129] | 38.4 nM
6 | COc1cc(C(C)N(CCOCc2ccccc2)C(=O)NC2(C(=O)O)CCC2)cc(OC)c1C(C)=O (centres unmarked) [Example 5-130] | 7.9 nM
7 | COc1cc(C(C)N(CCOCc2ccccc2)C(=O)NC2(C(=O)O)CCC2)cc(OC)c1C1CC1 (centres unmarked) [Example 5-131] | 10.8 nM
8 | COc1cc(C(C)N(CCOCc2ccccc2)C(=O)NC2(C(=O)O)CCC2)c(Cl)c(OC)c1C(C)=O (centres unmarked) [Example 5-132] | 4.97 nM
9 | COc1cc(C(C)N(CCOCc2ccccc2)C(=O)NC2(C(=O)O)CCC2)c(C)c(OC)c1C(C)=O (centres unmarked) [Example 5-134] | 4.55 nM
10 | COc1cc(C(C)N(CCOCc2ccccc2)C(=O)NC2(C(=O)O)CCC2)c(C)c(OC)c1C1CC1 (centres unmarked) [Example 5-135] | 1.88 nM
11 | COc1cc(C(C)N(CCOCc2ccccc2)C(=O)NC2(C(=O)O)CCC2)c(C)c(OC)c1C (centres unmarked) [Example 5-136] | 30.7 nM
12 | COc1cc(C(C)N(CCO[C@@H](C)c2ccccc2)C(=O)NC2(C(=O)O)CCC2)cc(OC)c1C1CC1 (some centres unmarked) [Example 5-137] | 8.18 nM
13 | COc1cc(C(C)N(CCOC(C)c2ccccc2)C(=O)NC2(C(=O)O)CCC2)c(Cl)c(OC)c1C1CC1 (centres unmarked) [Example 5-138] | 3.21 nM
14 | COc1cc(C(C)N(CCOC(C)c2ccccc2)C(=O)NC2(C(=O)O)CCC2)c(C)c(OC)c1C1CC1 (centres unmarked) [Example 5-139] | 2.95 nM
15 | COc1cc(C(C)N(CCO[C@@H](C)c2ccccc2)C(=O)NC2(C(=O)O)CCC2)c(C)c(OC)c1C (some centres unmarked) [Example 5-140] | 10.8 nM
16 | COc1cc(C(C)N(CCOCc2ccccc2)C(=O)NC2(C(=O)O)CC(F)(F)C2)cc(OC)c1C(C)=O (centres unmarked) [Example 5-141] | 3.49 nM
17 | COc1cc(C(C)N(CCOCc2ccccc2)C(=O)NC2(C(=O)O)CC(F)(F)C2)cc(OC)c1C1CC1 (centres unmarked) [Example 5-142] | 1.74 nM
18 | COc1cc(C(C)N(CCOCc2ccccc2)C(=O)NC2(C(=O)O)CC(F)(F)C2)c(Cl)c(OC)c1C(C)=O (centres unmarked) [Example 5-143] | 3.11 nM
19 | COc1cc(C(C)N(CCOCc2ccccc2)C(=O)NC2(C(=O)O)CC(F)(F)C2)c(Cl)c(OC)c1C1CC1 (centres unmarked) [Example 5-144] | 1.11 nM
20 | COc1cc(C(C)N(CCOCc2ccccc2)C(=O)NC2(C(=O)O)CC(F)(F)C2)c(C)c(OC)c1C(C)=O (centres unmarked) [Example 5-145] | 2.43 nM
21 | COc1cc(C(C)N(CCOCc2ccccc2)C(=O)NC2(C(=O)O)CC(F)(F)C2)c(C)c(OC)c1C1CC1 (centres unmarked) [Example 5-146] | 1.02 nM
22 | COc1cc(C(C)N(CCOCc2ccccc2)C(=O)NC2(C(=O)O)CC(F)(F)C2)c(C)c(OC)c1C (centres unmarked) [Example 5-147] | 3.62 nM

Row | Compound | IC50
23 | COc1cc(C(C)N(CCO[C@@H](C)c2ccccc2)C(=O)NC2(C(=O)O)CC(F)(F)C2)cc(OC)c1C1CC1 (some centres unmarked) [Example 5-148] | 3.4 nM
24 | COc1cc(C(C)N(CCO[C@@H](C)c2ccccc2)C(=O)NC2(C(=O)O)CC(F)(F)C2)c(Cl)c(OC)c1C1CC1 (some centres unmarked) [Example 5-149] | 2.58 nM
25 | COc1cc(C(C)N(CCO[C@@H](C)c2ccccc2)C(=O)NC2(C(=O)O)CC(F)(F)C2)c(C)c(OC)c1C1CC1 (some centres unmarked) [Example 5-150] | 3.37 nM
26 | COc1cc(C(C)N(CCO[C@@H](C)c2ccccc2)C(=O)NC2(C(=O)O)CC(F)(F)C2)c(C)c(OC)c1C (some centres unmarked) [Example 5-151] | 4.46 nM
27 | COc1cc(C(C)N(CCOCc2ccccc2)C(=O)NC2(C(=O)O)CC(OC)C2)cc(OC)c1C1CC1 (centres unmarked) [Example 5-152] | 2.36 nM
28 | COc1cc(C(C)N(CCOCc2ccccc2)C(=O)NC2(C(=O)O)CC(OC)C2)c(Cl)c(OC)c1C1CC1 (centres unmarked) [Example 5-153] | 0.961 nM
29 | COc1cc(C(C)N(CCOCc2ccccc2)C(=O)NC2(C(=O)O)CC(OC)C2)c(C)c(OC)c1C(C)=O (centres unmarked) [Example 5-154] | 4.3 nM
30 | COc1cc(C(C)N(CCOCc2ccccc2)C(=O)NC2(C(=O)O)CC(OC)C2)c(C)c(OC)c1C1CC1 (centres unmarked) [Example 5-155] | 1.1 nM
31 | COc1cc(C(C)N(CCOC(C)c2ccccc2)C(=O)NC2(C(=O)O)CC(OC)C2)cc(OC)c1C1CC1 (centres unmarked) [Example 5-157] | 3.54 nM
32 | COc1cc(C(C)N(CCOC(C)c2ccccc2)C(=O)N[C@]2(C(=O)O)C[C@@H](OC)C2)c(C)c(OC)c1C (some centres unmarked) [Example 5-160] | 4.55 nM
33 | COc1cc(C(C)N(CCOCc2ccccc2)C(=O)NC2(C(=O)O)CC(OC)C2)c(Cl)c(OC)c1C1CC1 (centres unmarked) [Example 5-161] | 1.46 nM
34 | CCOC1CC(NC(=O)N(CCOCc2ccccc2)C(C)c2cc(OC)c(C3CC3)c(OC)c2)(C(=O)O)C1 (centres unmarked) [Example 5-162] | 3.66 nM
35 | CCOC1CC(NC(=O)N(CCOCc2ccccc2)C(C)c2cc(OC)c(C(C)=O)c(OC)c2C)(C(=O)O)C1 (centres unmarked) [Example 5-164] | 4.84 nM
36 | CCOC1CC(NC(=O)N(CCOCc2ccccc2)C(C)c2cc(OC)c(C3CC3)c(OC)c2C)(C(=O)O)C1 (centres unmarked) [Example 5-165] | 2.05 nM
37 | CCOC1CC(NC(=O)N(CCOC(C)c2ccccc2)C(C)c2cc(OC)c(C3CC3)c(OC)c2)(C(=O)O)C1 (centres unmarked) [Example 5-167] | 5.26 nM
38 | CCOC1CC(NC(=O)N(CCOC(C)c2ccccc2)C(C)c2cc(OC)c(C3CC3)c(OC)c2C)(C(=O)O)C1 (centres unmarked) [Example 5-169] | 7.97 nM
39 | CCOC1CC(NC(=O)N(CCOC(C)c2ccccc2)C(C)c2cc(OC)c(C)c(OC)c2C)(C(=O)O)C1 (centres unmarked) [Example 5-170] | 6.25 nM
40 | COc1cc(C(C)N(CCOCc2ccccc2)C(=O)NC2(C(=O)O)CCOCC2)cc(OC)c1C(C)=O (centres unmarked) [Example 5-172] | 54.2 nM
41 | COc1cc(C(C)N(CCOCc2ccccc2)C(=O)NC2(C(=O)O)CCOCC2)cc(OC)c1C1CC1 (centres unmarked) [Example 5-173] | 34.7 nM
42 | COc1cc(C(C)N(CCOCc2ccccc2)C(=O)NC2(C(=O)O)CCOCC2)c(Cl)c(OC)c1C(C)=O (centres unmarked) [Example 5-174] | 30 nM
43 | COc1cc(C(C)N(CCOCc2ccccc2)C(=O)NC2(C(=O)O)CCOCC2)c(Cl)c(OC)c1C1CC1 (centres unmarked) [Example 5-175] | 4.93 nM
44 | COc1cc(C(C)N(CCOCc2ccccc2)C(=O)NC2(C(=O)O)CCOCC2)c(C)c(OC)c1C1CC1 (centres unmarked) [Example 5-177] | 2.77 nM

Row | Compound | IC50
45 | COc1cc(C(C)N(CCO[C@@H](C)c2ccccc2)C(=O)NC2(C(=O)O)CCOCC2)c(Cl)c(OC)c1C1CC1 (some centres unmarked) [Example 5-180] | 6.4 nM
46 | COc1cc(C(C)N(CCO[C@@H](C)c2ccccc2)C(=O)NC2(C(=O)O)CCOCC2)c(C)c(OC)c1C1CC1 (some centres unmarked) [Example 5-181] | 3.51 nM
47 | CCOc1cc(C(C)N(CCOCc2ccccc2)C(=O)NC2(C(=O)O)CC2)c(Cl)c(OCC)c1C(C)=O (centres unmarked) [Example 5-184] | 2.53 nM
48 | CCOc1cc(C(C)N(CCOCc2ccccc2)C(=O)NC2(C(=O)O)CC2)c(Cl)c(OCC)c1C1CC1 (centres unmarked) [Example 5-185] | 0.919 nM
49 | CCOc1cc(C(C)N(CCOCc2ccccc2)C(=O)NC2(C(=O)O)CC2)c(C)c(OCC)c1C(C)=O (centres unmarked) [Example 5-186] | 2.63 nM
50 | CCOc1cc(C(C)N(CCOC(C)c2ccccc2)C(=O)NC2(C(=O)O)CC2)c(Cl)c(OCC)c1C(C)=O (centres unmarked) [Example 5-187] | 4.16 nM
51 | CCOc1cc(C(C)N(CCOCc2ccccc2)C(=O)NC2(C(=O)O)CCC2)c(Cl)c(OCC)c1C(C)=O (centres unmarked) [Example 5-189] | 1.46 nM
52 | CCOc1cc(C(C)N(CCOCc2ccccc2)C(=O)NC2(C(=O)O)CCC2)c(Cl)c(OCC)c1C1CC1 (centres unmarked) [Example 5-190] | 0.817 nM
53 | CCOc1cc(C(C)N(CCOCc2ccccc2)C(=O)NC2(C(=O)O)CCC2)c(C)c(OCC)c1C(C)=O (centres unmarked) [Example 5-191] | 1.45 nM
54 | CCOc1cc(C(C)N(CCOCc2ccccc2)C(=O)NC2(C(=O)O)CCC2)c(C)c(OCC)c1C1CC1 (centres unmarked) [Example 5-192] | 0.47 nM
55 | CCOc1cc(C(C)N(CCOCc2ccccc2)C(=O)NC2(C(=O)O)CCC2)c(C)c(OCC)c1C (centres unmarked) [Example 5-193] | 2 nM
56 | CCOc1cc(C(C)N(CCOC(C)c2ccccc2)C(=O)NC2(C(=O)O)CCC2)c(C)c(OCC)c1C (centres unmarked) [Example 5-194] | 2.15 nM
57 | CCOc1cc(C(C)N(CCOC(C)c2ccccc2)C(=O)NC2(C(=O)O)CCC2)c(Cl)c(OCC)c1C(C)=O (centres unmarked) [Example 5-195] | 2.07 nM
58 | CCOc1cc(C(C)N(CCOCc2ccccc2)C(=O)NC2(C(=O)O)CC(F)(F)C2)cc(OCC)c1C1CC1 (centres unmarked) [Example 5-196] | 1.41 nM
59 | CCOc1cc(C(C)N(CCOCc2ccccc2)C(=O)NC2(C(=O)O)CC(F)(F)C2)c(Cl)c(OCC)c1C1CC1 (centres unmarked) [Example 5-197] | 1.04 nM
60 | CCOc1cc(C(C)N(CCCCc2ccccc2)C(=O)N[C@]2(C(=O)O)C[C@@H](OC)C2)c(C)c(OCC)c1C(C)=O (some centres unmarked) [Example 5-198] | 2.9 nM
61 | CCOc1cc(C(C)N(CCOCc2ccccc2)C(=O)NC2(C(=O)O)CC(OC)C2)cc(OCC)c1C1CC1 (centres unmarked) [Example 5-199] | 0.761 nM
62 | CCOc1cc(C(C)N(CCOCc2ccccc2)C(=O)NC2(C(=O)O)CC(OC)C2)c(Cl)c(OCC)c1C1CC1 (centres unmarked) [Example 5-200] | 0.548 nM
63 | CCOc1cc(C(C)N(CCOCc2ccccc2)C(=O)NC2(C(=O)O)CC(OC)C2)c(C)c(OCC)c1C1CC1 (centres unmarked) [Example 5-201] | 0.712 nM
64 | CCOc1cc(C(C)N(CCO[C@@H](C)c2ccccc2)C(=O)NC2(C(=O)O)CC(OC)C2)c(Cl)c(OCC)c1C1CC1 (some centres unmarked) [Example 5-202] | 1.62 nM
65 | CCOc1cc(C(C)N(CCO[C@@H](C)c2ccccc2)C(=O)NC2(C(=O)O)CC(OC)C2)c(C)c(OCC)c1C1CC1 (some centres unmarked) [Example 5-203] | 1.33 nM
